Source: patent USRE39608E1, “Substituted benzimidazoles and their use as PARP inhibitors” (Abbott GmbH & Co. KG, priority 1998, dated 2007)
Where a name gives a salt, the structure may show the parent alone.

Columns and labels:
[1] = S. Cuzzocrea et al., Br. J. Pharmacol. 121 (1997); cited from earlier work
[2] = Determination of the water solubility; type: physicochemical; settings: pH of from 5 to 6 with sodium acetate solution
Description: A compound to be measured was dissolved directly in a specified volume of water and the resulting solution was brought to a pH of from 5 to 6 with a sodium acetate solution so that the concentration of the active compound to be tested was reached. If the test substance was not present as a water-soluble salt, it was dissolved in a very small amount of dimethyl sulfoxide and then diluted with water (final concentration of dimethyl sulfoxide≦1%), after which the pH was adjusted here too. Here, Example 1 according to the invention gave a solubility of >0.5%.

solubility [2] | SMILES | protective effects in a model for circulatory shock [1]
 | NC(=O)c1cccc(N)c1 [3-aminobenzamide] | protective effects
> 0.5% | NC(=O)c1cccc2[nH]c(C3CCNCC3)nc12 [Example 1, 2-(Piperidin-4-yl)benzimidazole-4-carboxamide.2 HCl] | 
